Measurements: patent publication US20140057895A1, “INDAZOLE- AND PYRROLOPYRIDINE-DERIVATIVE AND PHARMACEUTICAL USE THEREOF” (priority 2011, published 2014)
Counter-ions that a name gives are not always drawn.

Experiments:
[1] = molecular target: T1, 5-HT4 receptor (Cavia porcellus, UniProt O70528); assay: Test Example 3: Guinea pig 5-HT4 receptor binding assay, [3H]-GR113808, striatum membranes (Table 98); conditions: Guinea pig 5-HT4 receptor binding assay, [3H]-GR113808, striatum membranes; mean value of each group; read-out: IC50
T1 construct: striatum was isolated which was cryopreserved at −80° C. until use; from tissue; host or cells: guinea pig (Slc-Hartley) striatum membranes
Description: The guinea pig 5-HT4 receptor binding assay and preparations of receptor membrane preparations herein were carried out according to a method of Grossman et al. [see, British J. Pharmacol., (1993) 109, 618].
Slc-Hartley guinea pigs (body weight 300 g to 400 g) were decapitated to remove brain rapidly, and striatum was isolated which was cryopreserved at −80° C. until use. To the obtained tissues were added fifteen fold of Hepes buffer (50 mM, pH 7.4, 4° C.), and the mixture was homogenized by Teflon (trademark) homogenizer and centrifuged at 48,000×g (4° C.) for 15 minutes. To the resulting precipitate was added Hepes buffer (1 ml) to 30 mg by wet weight of tissues, and the mixture was suspended to give receptor membrane preparations.
To an assay tube were added 0.1 nM [^3H]-GR113808 {chemical name: [1-[2-(methylsulfonylamino) ethyl]-4-piperidinyl]methyl 1-methylindole-3-carboxylate}, receptor membrane preparations, and Hepes buffer (50 mM, pH 7.4, 4° C., 1 ml) containing test compounds or 30 μM serotonin; and the mixture was incubated at 37° C. for 30 minutes. On quenching the reaction, the mixture was rapidly filtered on whatman GF/B filter, which was presoaked in 0.1% polyethyleneimine for 1 hour, by using Brandel cell Harvester, and washed with ice-cooled 50 mM Tris-HCl (pH 7.7, 4 ml) three times. To the filter after filtration was added a liquid scintillator (Ecoscint), and then a radioactivity was determined by a liquid scintillation counter.
50% Inhibition concentrations (IC50) were determined from inhibition rates of test compounds to specific bindings which were obtained by subtracting nonspecific bindings from total binding amounts of [^3H]-GR113808. […]

[2] = molecular target: T2, human 5-HT4b receptor (Homo sapiens, UniProt Q13639); assay: Test Example 4: Serotonin 4 (5-HT4) receptor agonist activity assay, cAMP HTRF in CHO cells (Table 100); type: cell-based; conditions: mean value; for Emax: CHO, 0.25 h, intrinsic activity, maximal activity of 5-HT defined as 100%, read-out: IA (%); for EC50: concentration showing 50% of IA
T2 construct: expressed in transfected cells; host or cells: CHO cells (G418 selection)
Description: The cAMP measurement test used herein was carried out by using CISBIO HTRF (trademark) cAMP Hirange kit according to the manufacturer's instructions attached therewith.
CHO cells expressing human 5-HT4b receptor were incubated in Medium 1 [DMEM/1% NEAA, 1% penicillin/streptomycin (P/S), 0.2 mg/mL GENETICIN (G418), 10% FBS] at 37° C. under 5% CO2 condition. Then, the cells were put into Medium 2 (DMEM/10000 cut FBS, G-418, P/S, NEAA) for 1 to 2 hours, and collected by treating with trypsin containing EDTA. The collected cells were suspended in Assay Buffer 1 [100 mM Hanks/HEPES buffer (pH 7.4)], the suspended cells were mixed with the testing compound on 384-well plates, and the cells were incubated at 31° C. for 15 minutes. To the cells were added cAMP-cryptate solution and cAMP-d2 solution, and they were incubated at room temperature for 1 hour. Then, time-resolved fluorescence was measured by En Vision (excitation wavelength: 330 nm, fluorescence wavelength: 620/665 nm).
An intrinsic activity of the compound [IA (%)] and a concentration showing 50% of IA [EC50 (nM)] were calculated from the obtained results. In particular, the intrinsic activity (IA) was calculated on the basis of the maximal activity of 5-HT (measured from 10^−11 M to 10^−7 M) defined as 100%.
In the following table, the compounds used in the test are shown in numbers which correspond to the Example numbers above where the preparations of the compounds are described.

T2 sequence (Q13639 whole entry): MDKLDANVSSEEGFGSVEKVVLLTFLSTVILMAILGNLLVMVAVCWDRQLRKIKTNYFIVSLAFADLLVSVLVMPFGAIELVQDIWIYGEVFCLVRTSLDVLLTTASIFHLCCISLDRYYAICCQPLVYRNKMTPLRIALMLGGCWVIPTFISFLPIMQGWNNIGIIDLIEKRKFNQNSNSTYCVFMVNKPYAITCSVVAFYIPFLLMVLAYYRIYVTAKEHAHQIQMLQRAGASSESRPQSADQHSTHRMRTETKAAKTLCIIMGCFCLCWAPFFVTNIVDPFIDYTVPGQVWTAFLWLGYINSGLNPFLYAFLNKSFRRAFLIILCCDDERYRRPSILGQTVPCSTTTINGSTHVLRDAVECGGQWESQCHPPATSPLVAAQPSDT
T1 sequence (O70528 whole entry): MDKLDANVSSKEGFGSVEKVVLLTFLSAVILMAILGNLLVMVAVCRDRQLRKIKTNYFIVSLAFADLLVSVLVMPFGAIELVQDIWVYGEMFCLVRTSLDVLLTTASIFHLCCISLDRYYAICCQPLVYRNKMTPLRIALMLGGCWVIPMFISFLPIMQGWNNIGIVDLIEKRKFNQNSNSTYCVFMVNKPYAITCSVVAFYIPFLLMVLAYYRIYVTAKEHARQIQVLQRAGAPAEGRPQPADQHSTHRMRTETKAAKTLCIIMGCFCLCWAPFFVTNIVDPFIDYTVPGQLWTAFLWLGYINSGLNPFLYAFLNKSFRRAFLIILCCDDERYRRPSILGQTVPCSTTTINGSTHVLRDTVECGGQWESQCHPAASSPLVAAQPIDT

SMILES	IC50 [1] [nM]	Emax [2] [%]	EC50 [2] [nM]
CCc1nn(-c2noc(C3CCN(CC4CN(C(C)=O)C4)CC3)n2)c2c(F)c(F)ccc12 [Example 468, 1-[3-({4-[3-(3-ethyl-6,7-difluoro-1H-indazol-1-yl)-1,2,4-oxadiazol-5-yl]piperidin-1-yl}methyl)azetidin-1-yl]ethanone trifluoroacetate]	< 20	69.8	22.4
COCC(=O)N1CC(CN2CCC(c3nc(-n4nc(C(C)C)c5cccc(F)c54)no3)CC2)C1 [Example 221, 1-{3-[(4-{3-[7-fluoro-3-(propan-2-yl)-1H-indazol-1-yl]-1,2,4-oxadiazol-5-yl}piperidin-1-yl)methyl]azetidin-1-yl}-2-methoxyethanone hydrochloride]	< 20	86.1	6.1
CCc1nn(-c2noc(C3CCN(C[C@H]4CCN(C(=O)CO)C4)CC3)n2)c2c(F)cccc12 [Example 247, 1-[(3R)-3-({4-[3-(3-ethyl-7-fluoro-1H-indazol-1-yl)-1,2,4-oxadiazol-5-yl]piperidin-1-yl}methyl)pyrrolidin-1-yl]-2-hydroxyethanone]	< 20	79	12.7
CC(C)c1nn(-c2noc(C3CCN(CCC(=O)Nc4ccccc4)CC3)n2)c2c(F)cccc12 [Example 398, 3-(4-{3-[7-fluoro-3-(propan-2-yl)-1H-indazol-1-yl]-1,2,4-oxadiazol-5-yl}piperidin-1-yl)-N-phenylpropanamide]	< 20	–	–
CC(C)c1nn(-c2noc(C3CCN(C4CCOCC4)CC3)n2)c2c(F)c(F)ccc12 [Example 454, 6,7-difluoro-3-(propan-2-yl)-1-{5-[1-(tetrahydro-2H-pyran-4-yl)piperidin-4-yl]-1,2,4-oxadiazol-3-yl}-1H-indazole trifluoroacetate]	< 20	–	–
CC(C)c1nn(-c2noc(C3CCN(CC4CCOCC4)CC3)n2)c2c(F)c(F)ccc12 [Example 453, 6,7-difluoro-3-(propan-2-yl)-1-{5-[1-(tetrahydro-2H-pyran-4-ylmethyl)piperidin-4-yl]-1,2,4-oxadiazol-3-yl}-1H-indazole trifluoroacetate]	28.1	–	–
CC(=O)N1CCC(N2CCC(Cc3nc(-n4nc(C(C)C)c5cccc(F)c54)no3)CC2)CC1 [Example 417, 1-[4-({3-[7-fluoro-3-(propan-2-yl)-1H-indazol-1-yl]-1,2,4-oxadiazol-5-yl}methyl)-1,4′-bipiperidin-1′-yl]ethanone]	36	–	–
Cc1ccc2c(C(C)C)nn(-c3noc(C4CCN(C5CCC5)CC4)n3)c2c1 [Example 433, 1-[5-(1-cyclobutylpiperidin-4-yl)-1,2,4-oxadiazol-3-yl]-6-methyl-3-(propan-2-yl)-1H-indazole]	65	–	–
CC(C)c1nn(-c2noc(C3CCN(C4CC[S+]([O-])CC4)CC3)n2)c2c(F)cccc12 (stereo not shown) [Example 443, 7-fluoro-1-{5-[1-(1-oxidotetrahydro-2H-thiopyran-4-yl)piperidin-4-yl]-1,2,4-oxadiazol-3-yl}-3-(propan-2-yl)-1H-indazole]	18.1	–	–
CC(=O)N1CCC(N2CCC(c3nc(-n4nc(C(C)C)c5cccc(F)c54)no3)C2)CC1 (stereo not shown) [Example 415, 1-[4-(3-{3-[7-fluoro-3-(propan-2-yl)-1H-indazol-1-yl]-1,2,4-oxadiazol-5-yl}pyrrolidin-1-yl)piperidin-1-yl]ethanone]	< 20	–	–
CC(C)c1nn(-c2noc(C3CCN(C4CCCC4)CC3)n2)c2c(F)c(F)ccc12 [Example 452, 1-[5-(1-cyclopentylpiperidin-4-yl)-1,2,4-oxadiazol-3-yl]-6,7-difluoro-3-(propan-2-yl)-1H-indazole trifluoroacetate]	< 20	–	–
COC(=O)CCCN1CCC(c2nc(-n3nc(C(C)C)c4cccc(F)c43)no2)CC1 [Example 397, methyl 4-(4-{3-[7-fluoro-3-(propan-2-yl)-1H-indazol-1-yl]-1,2,4-oxadiazol-5-yl}piperidin-1-yl)butanoate]	< 20	–	–
CC(C)c1nn(-c2noc(C3CCN(C4CCOCC4)CC3)n2)c2cccc(Cl)c12 [Example 422, 4-chloro-3-(propan-2-yl)-1-{5-[1-(tetrahydro-2H-pyran-4-yl)piperidin-4-yl]-1,2,4-oxadiazol-3-yl}-1H-indazole]	55	–	–
CC(C)c1nn(-c2noc(C3CCN(C4CCC4)CC3)n2)c2cccc(Cl)c12 [Example 421, 4-chloro-1-[5-(1-cyclobutylpiperidin-4-yl)-1,2,4-oxadiazol-3-yl]-3-(propan-2-yl)-1H-indazole]	129	–	–
CC(=O)N1CCC(N2CCC(c3nc(-n4nc(C(C)C)c5cc(Cl)ccc54)no3)CC2)CC1 [Example 409, 1-(4-{3-[5-chloro-3-(propan-2-yl)-1H-indazol-1-yl]-1,2,4-oxadiazol-5-yl}-1,4′-bipiperidin-1′-yl)ethanone]	383	–	–

Continued, values first:

IC50 [1] [nM]	Emax [2] [%]	EC50 [2] [nM]	SMILES
< 20	63.5	3.9	CCc1nn(-c2noc(C3CCN(C4CCN(C(=O)CO)CC4)CC3)n2)c2c(F)cccc12 [compound 244, hydrochloride]
< 20	65.5	11.4	CCc1nn(-c2noc(C3CCN(CC4CCN(C(=O)COC)CC4)CC3)n2)c2c(F)c(F)ccc12 [Example 477, 1-[4-({4-[3-(3-ethyl-6,7-difluoro-1H-indazol-1-yl)-1,2,4-oxadiazol-5-yl]piperidin-1-yl}methyl)piperidin-1-yl]-2-methoxyethanone trifluoroacetate]
18.7	–	–	CC(C)c1nn(-c2noc(C3CCN(C4CCN(C(=O)CO)CC4)CC3)n2)c2c(F)ccc(O)c12 [Example 553, 1-(4-{3-[7-fluoro-4-hydroxy-3-(propan-2-yl)-1,1′-indazol-1-yl]-1,2,4-oxadiazol-5-yl}-1,4′-bipiperidin-1′-yl)-2-hydroxyethanone]
24.9	–	–	CC(=O)N1CCC(N2CCC(c3nc(-n4nc(C(C)C)c5c(O)ccc(F)c54)no3)CC2)CC1 [Example 555, 1-(4-{3-[7-fluoro-4-hydroxy-3-(propan-2-yl)-1H-indazol-1-yl]-1,2,4-oxadiazol-5-yl}-1,4′-bipiperidin-1′-yl)ethanone]
27.5	–	–	CC(=O)N1CCC(CN2CCC(c3nc(-n4nc(C(C)C)c5ccc(F)c(F)c54)no3)CC2)CC1 [Example 480, 1-{4-[(4-{3-[6,7-difluoro-3-(propan-2-yl)-1H-indazol-1-yl]-1,2,4-oxadiazol-5-yl}piperidin-1-yl)methyl]piperidin-1-yl}ethanone trifluoroacetate]
35.7	–	–	CC(=O)N1CCOC(CN2CCC(c3nc(-n4nc(C(C)C)c5cccc(F)c54)no3)CC2)C1 (stereo not shown) [Example 483, 1-{2-[(4-{3-[7-fluoro-3-(propan-2-yl)-1H-indazol-1-yl]-1,2,4-oxadiazol-5-yl}piperidin-1-yl)methyl]morpholin-4-yl}ethanone]
< 20	–	–	CCc1nn(-c2noc(C3CCN(CC4CCN(C(=O)OC)CC4)CC3)n2)c2c(F)c(F)ccc12 [Example 476, methyl 4-({4-[3-(3-ethyl-6,7-difluoro-1H-indazol-1-yl)-1,2,4-oxadiazol-5-yl]piperidin-1-yl}methyl)piperidin-1-carboxylate trifluoroacetate]
222	–	–	CCCCN1CCC(c2cnc(-n3nc(C(C)C)c4cccc(F)c43)s2)CC1 [Example 563, 1-[5-(1-butylpiperidin-4-yl)-1,3-thiazol-2-yl]-7-fluoro-3-(propan-2-yl)-1H-indazole]
190	–	–	CC(=O)N1CCC(N2CCC(c3nc(-n4nc(C(C)C)c5ccc(O)c(F)c54)no3)CC2)CC1 [Example 554, 1-(4-{3-[7-fluoro-6-hydroxy-3-(propan-2-yl)-1H-indazol-1-yl]-1,2,4-oxadiazol-5-yl}-1,4′-bipiperidin-1′-yl)ethanone]
